Experimental data from US9649309B2 (priority 2014, dated 2017).

How the values were obtained:
[1] = molecular target: Axl (Homo sapiens (Human), UniProt P30530); details: read-out: IC50 Axl
[2] = molecular target: Tyro3 (Homo sapiens (Human), UniProt Q06418); details: read-out: IC50 Tyro3
Sequence of Tyro3 (Q06418 41-890 limits assumed): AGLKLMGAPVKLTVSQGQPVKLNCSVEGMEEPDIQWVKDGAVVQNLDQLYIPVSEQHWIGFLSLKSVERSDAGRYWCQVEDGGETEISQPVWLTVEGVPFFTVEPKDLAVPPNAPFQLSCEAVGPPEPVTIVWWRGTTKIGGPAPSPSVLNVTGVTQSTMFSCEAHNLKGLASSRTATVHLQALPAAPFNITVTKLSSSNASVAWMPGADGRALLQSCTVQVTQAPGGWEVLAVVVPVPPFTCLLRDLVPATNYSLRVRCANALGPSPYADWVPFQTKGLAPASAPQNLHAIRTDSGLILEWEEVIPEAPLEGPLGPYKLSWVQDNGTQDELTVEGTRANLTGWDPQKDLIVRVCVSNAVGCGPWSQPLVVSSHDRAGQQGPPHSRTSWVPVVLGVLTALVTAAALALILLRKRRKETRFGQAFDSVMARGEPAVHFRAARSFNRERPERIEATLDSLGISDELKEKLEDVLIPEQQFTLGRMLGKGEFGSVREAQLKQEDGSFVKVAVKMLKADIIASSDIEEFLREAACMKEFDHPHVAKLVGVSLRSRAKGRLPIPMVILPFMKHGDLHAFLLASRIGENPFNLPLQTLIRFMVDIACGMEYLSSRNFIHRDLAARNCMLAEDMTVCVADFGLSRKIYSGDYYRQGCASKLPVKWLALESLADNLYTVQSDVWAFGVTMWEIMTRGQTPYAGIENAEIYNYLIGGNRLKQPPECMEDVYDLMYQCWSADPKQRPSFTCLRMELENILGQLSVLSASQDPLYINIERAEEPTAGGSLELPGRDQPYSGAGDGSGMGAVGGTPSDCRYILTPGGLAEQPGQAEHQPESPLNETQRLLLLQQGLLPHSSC

Sequence of Axl (P30530 26-894 limits assumed): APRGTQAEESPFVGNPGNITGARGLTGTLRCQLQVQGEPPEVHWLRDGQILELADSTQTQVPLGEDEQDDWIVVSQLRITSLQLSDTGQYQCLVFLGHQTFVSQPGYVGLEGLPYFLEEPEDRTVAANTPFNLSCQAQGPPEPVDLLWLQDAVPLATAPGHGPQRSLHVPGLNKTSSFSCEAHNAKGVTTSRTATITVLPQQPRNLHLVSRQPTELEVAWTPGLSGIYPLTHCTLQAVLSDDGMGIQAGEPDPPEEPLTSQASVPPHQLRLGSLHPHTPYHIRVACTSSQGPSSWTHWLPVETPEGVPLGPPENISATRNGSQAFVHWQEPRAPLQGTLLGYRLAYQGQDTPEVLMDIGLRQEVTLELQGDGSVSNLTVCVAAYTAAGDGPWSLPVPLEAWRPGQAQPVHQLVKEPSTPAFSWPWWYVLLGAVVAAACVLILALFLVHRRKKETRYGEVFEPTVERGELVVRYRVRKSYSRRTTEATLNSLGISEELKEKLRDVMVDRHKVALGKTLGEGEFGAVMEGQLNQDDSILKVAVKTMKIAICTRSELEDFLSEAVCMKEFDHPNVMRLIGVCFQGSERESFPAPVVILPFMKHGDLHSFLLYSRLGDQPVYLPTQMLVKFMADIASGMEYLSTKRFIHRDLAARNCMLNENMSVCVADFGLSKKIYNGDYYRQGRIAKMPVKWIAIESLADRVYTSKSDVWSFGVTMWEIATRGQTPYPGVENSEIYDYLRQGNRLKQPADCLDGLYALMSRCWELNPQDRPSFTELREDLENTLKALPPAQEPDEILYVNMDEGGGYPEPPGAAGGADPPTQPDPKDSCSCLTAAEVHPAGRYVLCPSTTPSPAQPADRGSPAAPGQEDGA

| SMILES | IC50 [1] [nM] | IC50 [2] [nM] |
| --- | --- | --- |
| CCCCNc1ncc(-c2ccc(NC(=O)C3CCCCC3)cn2)c(NC2CCC(O)CC2)n1 (stereo not shown) [UNC2712A] | 364 | 209 |
| CCCCNc1ncc(-c2cc(NC(=O)c3ccc(F)cc3)ncn2)c(N[C@H]2CC[C@H](O)CC2)n1 [UNC3182A] | 30000 | 30000 |
| CCCCNc1ncc(-c2ccccn2)c(NCCO)n1 [UNC2997A] | 30000 | 20000 |
| CCCCNc1ncc(C(=O)NC2CCN(Cc3ccc(N4CCOCC4)cc3)CC2)c(N[C@H]2CC[C@H](O)CC2)n1 [UNC2918A] | 667 | 145 |
| CCCCNc1ncc(C(=O)NCc2ccc(N3CCOCC3)cc2)c(N[C@H]2CC[C@H](O)CC2)n1 [UNC2804A] | 592 | 210 |
| CCCCNc1ncc(-c2ccc(CN3C4CCCC3CC4)cn2)c(N[C@H]2CC[C@H](O)CC2)n1 [UNC4169A] | 9.6 | 3.9 |
| CCCCNc1ncc(-c2ncc(C(N)=O)s2)c(N[C@H]2CC[C@H](O)CC2)n1 [UNC3134A] | 146 | 62 |
| CCCCNc1ncc(C(=O)NC2CCN(CC3CCCC3)CC2)c(N[C@H]2CC[C@H](O)CC2)n1 [UNC2878A] | 191 | 166 |
| CCCCNc1ncc(-c2ccccn2)c(NCCCCCO)n1 [UNC2964A] | 5270 | 2770 |
| CCCCNc1ncc(C(=O)Nc2ccc(CN3CCN(C)CC3)cc2)c(N[C@H]2CC[C@H](O)CC2)n1 [UNC2764A] | 177 | – |
| CCCCNc1ncc(-c2ccc(-c3cccc(C(=O)O)c3)nn2)c(N[C@H]2CC[C@H](O)CC2)n1 [UNC3141A] | 30000 | – |

Results, then the compound that gave them:

| IC50 [1] [nM] | IC50 [2] [nM] | SMILES |
| --- | --- | --- |
| 10000 | 3940 | CCCCNc1ncc(-c2cn(C)cn2)c(N[C@H]2CC[C@H](O)CC2)n1 [UNC3116A] |
| 968 | 605 | CCCCNc1ncc(-c2cnc(N)cn2)c(N[C@H]2CC[C@H](O)CC2)n1 [UNC3041A] |
| 123 | 43 | CCCCNc1ncc(-c2cc(N)ncn2)c(N[C@H]2CC[C@H](O)CC2)n1 [UNC3072A] |
| 558 | 192 | CCCCNc1ncc(-c2ccc(C(=O)O)nn2)c(N[C@H]2CC[C@H](O)CC2)n1 [UNC3042A] |
| 30000 | 619 | CCCCNc1ncc(-c2cc(Nc3cccc(C(C)C)c3)ncn2)c(N[C@H]2CC[C@H](O)CC2)n1 [UNC4323A] |
| 30000 | 15100 | CCCCNc1ncc(-c2cc(Nc3cccc(-c4ccccc4)c3)ncn2)c(N[C@H]2CC[C@H](O)CC2)n1 [UNC4353A] |
| 47 | 22 | CCCCNc1ncc(-c2ccc(CN3CCN[C@@H](C)C3)cn2)c(NC2CCC(O)CC2)n1 (stereo partly shown) [UNC4106A] |
| 137 | 56 | CCCCNc1ncc(-c2ccc(CC3CCNCC3)cn2)c(N[C@H]2CC[C@H](O)CC2)n1 [UNC4335A, trans-4-((2-(butylamino)-5-(5-(piperidin-4-ylmethyl)pyridin-2-yl)pyrimidin-4-yl)amino)cyclohexan-1-ol] |
| 698 | 242 | CCCCNc1ncc(C(=O)NCc2ccc(-c3ccc(OC)cc3)nc2)c(N[C@H]2CC[C@H](O)CC2)n1 [UNC4238A] |
| 960 | 494 | CCCCNc1ncc(C(=O)NCC2CCNCC2)c(N[C@H]2CC[C@H](O)CC2)n1 [UNC4287A] |
| 754 | 255 | CCCCNc1ncc(-c2cnc(SC)cn2)c(N[C@H]2CC[C@H](O)CC2)n1 [UNC3074A] |
| 12300 | 194 | CCCCNc1ncc(-c2cc(Nc3ccccc3OC)ncn2)c(N[C@H]2CC[C@H](O)CC2)n1 [UNC4272A] |
| 104 | 43 | CCCCNc1ncc(-c2ccc(CCN3CCCC3)cn2)c(N[C@H]2CC[C@H](O)CC2)n1 [UNC4221A] |
| – | 375 | CCCCNc1ncc(C(=O)NCc2ccon2)c(N[C@H]2CC[C@H](O)CC2)n1 [UNC4290A] |
| – | 27 | CCCCNc1ncc(-c2ccc(CN3CC(C)NC(C)C3)cn2)c(NC2CCC(O)CC2)n1 (stereo not shown) [UNC4105A] |
| – | 19 | CCCCNc1ncc(-c2ccc(CN3CCNCC3(C)C)cn2)c(NC2CCC(O)CC2)n1 (stereo not shown) [UNC4110A] |
